From patent US10370366B2 (Flatley Discovery Lab, LLC, priority 2013, dated 2019) come the findings set out here.

T1 sequence (P13569 with tags, fused parts or gaps DEL508-508): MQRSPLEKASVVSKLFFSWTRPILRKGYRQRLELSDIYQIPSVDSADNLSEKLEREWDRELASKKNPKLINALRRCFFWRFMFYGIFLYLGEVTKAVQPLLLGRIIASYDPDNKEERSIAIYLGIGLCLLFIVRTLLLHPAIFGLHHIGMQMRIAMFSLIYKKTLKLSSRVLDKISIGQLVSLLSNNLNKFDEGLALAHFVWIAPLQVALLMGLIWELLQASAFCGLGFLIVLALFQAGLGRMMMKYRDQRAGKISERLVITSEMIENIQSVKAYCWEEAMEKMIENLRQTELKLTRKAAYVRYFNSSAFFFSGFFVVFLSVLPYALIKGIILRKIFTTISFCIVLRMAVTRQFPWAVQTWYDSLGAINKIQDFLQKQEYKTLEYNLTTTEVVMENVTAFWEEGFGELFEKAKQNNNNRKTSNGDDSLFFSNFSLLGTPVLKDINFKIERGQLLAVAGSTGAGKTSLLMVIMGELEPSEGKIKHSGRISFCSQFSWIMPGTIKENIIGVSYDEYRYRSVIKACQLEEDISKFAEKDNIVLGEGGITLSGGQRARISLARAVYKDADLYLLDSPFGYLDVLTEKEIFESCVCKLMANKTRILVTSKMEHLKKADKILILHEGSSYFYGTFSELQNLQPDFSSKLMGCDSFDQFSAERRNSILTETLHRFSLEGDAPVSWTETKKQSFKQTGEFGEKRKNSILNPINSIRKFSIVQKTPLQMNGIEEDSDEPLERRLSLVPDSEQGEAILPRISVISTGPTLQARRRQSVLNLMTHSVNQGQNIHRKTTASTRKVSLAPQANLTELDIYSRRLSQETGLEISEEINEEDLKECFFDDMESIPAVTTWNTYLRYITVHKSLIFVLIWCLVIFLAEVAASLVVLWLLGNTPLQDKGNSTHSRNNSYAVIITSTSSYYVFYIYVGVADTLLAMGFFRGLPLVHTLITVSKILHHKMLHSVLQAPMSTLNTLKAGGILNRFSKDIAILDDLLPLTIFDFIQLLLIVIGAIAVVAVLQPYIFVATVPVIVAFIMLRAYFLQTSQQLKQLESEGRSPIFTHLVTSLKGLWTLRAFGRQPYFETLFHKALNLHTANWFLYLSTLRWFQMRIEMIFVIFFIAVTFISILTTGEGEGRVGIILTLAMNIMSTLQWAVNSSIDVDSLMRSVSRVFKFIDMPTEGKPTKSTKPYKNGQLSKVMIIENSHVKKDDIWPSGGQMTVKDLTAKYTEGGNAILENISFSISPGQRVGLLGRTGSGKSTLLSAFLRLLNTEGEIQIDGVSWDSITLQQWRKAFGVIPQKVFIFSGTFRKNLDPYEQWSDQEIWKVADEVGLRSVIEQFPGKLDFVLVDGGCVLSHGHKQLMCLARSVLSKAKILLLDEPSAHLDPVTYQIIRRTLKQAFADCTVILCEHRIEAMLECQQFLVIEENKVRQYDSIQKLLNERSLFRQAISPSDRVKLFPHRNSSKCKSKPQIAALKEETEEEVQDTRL

This assay concerns the target T1, human F508del CFTR (Homo sapiens, UniProt P13569, DEL508-508).
T1 construct: expressed in transfected cells; host or cells: Fisher Rat Thyroid (FRT) cells
Put plainly: CFTR-YFP High Throughput Assay. The assay is classed as cell-based. The conditions noted are these: EMax normalized to the positive control; FRT cells expressing human F508del CFTR and YFP; read-out: % Efficacy. Put shortly:
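Corrector mode: 24-26 h compound exposure (2 nM-40 μM, 37° C) of FRT cells carrying human F508del CFTR and YFP-H148Q/I152L, followed by washing and 60-120 min RT stimulation with 20 μM forskolin and 30 μM P3. CFTR activity is the least-squares-fitted rate of YFP quenching (Ex 500/Em 540 nm) after iodide addition.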
In the case of `CCN(C(=O)c1nn(-c2ccccc2)c(=O)c2c1c1ccccc1n2C)c1ccncn1` [Example 151, N-ethyl-5-methyl-4-oxo-3-phenyl-N-(pyrimidin-4-yl)-4,5-dihydro-3H-pyridazino[4,5-b]indole-1-carboxamide], the Emax was 30 to 80%.

Turning to `Cc1ccc(-n2nc(C(=O)N(c3ccccc3)C(C)C)c3c4ccccc4n(C)c3c2=O)cc1` [Example 152, N-isopropyl-5-methyl-4-oxo-N-phenyl-3-(p-tolyl)-4,5-dihydro-3H-pyridazino[4,5-b]indole-1-carboxamide], the Emax lay in the range of 30 to 80%.

Turning to `Cc1ccc(-n2nc(C(=O)N(c3ccccc3)C3CC3)c3c4ccccc4n(C)c3c2=O)cc1` [Example 153, N-cyclopropyl-5-methyl-4-oxo-N-phenyl-3-(p-tolyl)-4,5-dihydro-3H-pyridazino[4,5-b]indole-1-carboxamide], the Emax lay in the range of 30 to 80%.

On to `Cc1ccc(-n2nc(C(=O)N(CC#N)c3ccccc3)c3c4ccccc4n(C)c3c2=O)cc1` [Example 154, N-(cyanomethyl)-5-methyl-4-oxo-N-phenyl-3-(p-tolyl)-4,5-dihydro-3H-pyridazino[4,5-b]indole-1-carboxamide], for which the Emax lay in the range of 30 to 80%. To `CCN(CC)C(=O)c1nn(-c2ccc(C)cc2)c(=O)c2c1c1ccccc1n2C` [Example 155, N, N-diethyl-5-methyl-4-oxo-3-(p-tolyl)-4,5-dihydro-3H-pyridazino[4,5-b]indole-1-carboxamide] belongs 30 to 80%; to `CCN(C(=O)c1nn(-c2ccc(C)cc2)c(=O)c2c1c1ccccc1n2C)c1ccccn1` [Example 156, N-ethyl-5-methyl-4-oxo-N-(pyridin-2-yl)-3-(p-tolyl)-4,5-dihydro-3H-pyridazino[4,5-b]indole-1-carboxamide], 30 to 80%; to `CCN(C(=O)c1nn(-c2ccc(C)cc2)c(=O)c2c1c1ccccc1n2C)c1cccnc1` [Example 157, N-ethyl-5-methyl-4-oxo-N-(pyridin-3-yl)-3-(p-tolyl)-4,5-dihydro-3H-pyridazino[4,5-b]indole-1-carboxamide], 30 to 80%. `CCN(C(=O)c1nn(-c2ccccc2)c(=O)c2c1c1ccccc1n2C)c1ccncc1` [Example 158, N-ethyl-5-methyl-4-oxo-3-phenyl-N-(pyridin-4-yl)-4,5-dihydro-3H-pyridazino[4,5-b]indole-1-carboxamide]: the Emax was 30 to 80%.

`Cc1ccc(-n2nc(C(=O)N3CCCc4ccccc43)c3c4ccccc4n(C)c3c2=O)cc1` [Example 159, 5-methyl-1-(1,2,3,4-tetrahydroquinoline-1-carbonyl)-3-(p-tolyl)-3H-pyridazino[4,5-b]indol-4(5H)-one]: the Emax lay in the range of 30 to 80%. To `CCN(C(=O)c1nn(-c2ccc(C)cc2)c(=O)c2c1c1ccccc1n2C)C1CC1` [Example 160, N-cyclopropyl-N-ethyl-5-methyl-4-oxo-3-(p-tolyl)-4,5-dihydro-3H-pyridazino[4,5-b]indole-1-carboxamide] belongs 30 to 80%. For the compound `Cc1ccc(-n2nc(C(=O)N3CCN(Cc4ccccc4)CC3)c3c4ccccc4n(C)c3c2=O)cc1` [Example 161, 1-(4-benzylpiperazine-1-carbonyl)-5-methyl-3-(p-tolyl)-3H-pyridazino[4,5-b]indol-4(5H)-one], the Emax was 30 to 80%. To `CCN(C(=O)c1nn(-c2ccccc2)c(=O)c2c1c1ccccc1n2C)c1ncccn1` [Example 162, N-ethyl-5-methyl-4-oxo-3-phenyl-N-(pyrimidin-2-yl)-4,5-dihydro-3H-pyridazino[4,5-b]indole-1-carboxamide] belongs 30 to 80%. The same measure for `Cc1ccc(-n2nc(C(=O)N(CC(=O)O)c3ccccc3)c3c4ccccc4n(C)c3c2=O)cc1` [Example 163, 2-(5-methyl-4-oxo-N-phenyl-3-(p-tolyl)-4,5-dihydro-3H-pyridazino[4,5-b]indole-1-carboxamido)acetic acid]: 30 to 80%.
